Laboratory results taken from ChEMBL document CHEMBL1201862, “PubChem BioAssay data set” (2004).
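All cell lines were grown in 96-well plates and treated with compound for 48 hours. Abbreviation: GI50, concentration required for 50% inhibition of growth.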 The source made the active and inactive calls. Cut-off read from the data, not from the text of the source: active = GI50 up to about 1.1 µM and inactive = higher.

Columns and labels:
Experiment in all cases: growth of human tumour cells (NCI), 48 h
[1] = test system: Hs-578T
[2] = test system: OVCAR-8
[3] = test system: NCI-H522
[4] = test system: NCI-H23
[5] = test system: A549
[6] = test system: MCF7
[7] = test system: NCI-H226
[8] = test system: CCRF-CEM
[9] = test system: SNB-75
[10] = test system: OVCAR-5
[11] = test system: EKVX
[12] = test system: DU-145
[13] = test system: CAKI-1
[14] = test system: MOLT-4
[15] = test system: SW-620
[16] = test system: U-251
[17] = test system: SK-MEL-2
[18] = test system: M14
[19] = test system: NCI/ADR-RES

SMILES	GI50 [1]	GI50 [2]	GI50 [3]	GI50 [4]	GI50 [5]	GI50 [6]	GI50 [7]	GI50 [8]	GI50 [9]	GI50 [10]	GI50 [11]	GI50 [12]	GI50 [13]	GI50 [14]	GI50 [15]	GI50 [16]	GI50 [17]	GI50 [18]	GI50 [19]
CCSCCCC(=O)O	> 100 µM (inactive)	> 100 µM (inactive)	> 100 µM (inactive)	> 100 µM (inactive)	> 100 µM (inactive)	> 100 µM (inactive)	> 100 µM (inactive)	> 100 µM (inactive)	> 100 µM (inactive)	> 100 µM (inactive)	> 100 µM (inactive)	> 100 µM (inactive)	> 100 µM (inactive)	> 100 µM (inactive)	> 100 µM (inactive)	> 100 µM (inactive)	> 100 µM (inactive)	> 100 µM (inactive)	> 100 µM (inactive)
CCOC(=O)C(NC(=O)CC)(Nc1ccc(S(=O)(=O)Nc2onc(C)c2C)cc1)C(F)(F)F (stereo unspecified)	> 100 µM (inactive)	> 100 µM (inactive)	> 100 µM (inactive)	> 100 µM (inactive)	> 100 µM (inactive)	> 100 µM (inactive)	> 100 µM (inactive)	> 100 µM (inactive)	14.9 µM (inactive)	> 100 µM (inactive)	> 100 µM (inactive)	> 100 µM (inactive)	> 100 µM (inactive)	> 100 µM (inactive)	> 100 µM (inactive)	> 100 µM (inactive)	> 100 µM (inactive)	> 100 µM (inactive)	> 100 µM (inactive)
CN1CCN(CCCN)CC1	> 100 µM (inactive)	> 100 µM (inactive)	> 100 µM (inactive)	> 100 µM (inactive)	> 100 µM (inactive)	> 100 µM (inactive)	> 100 µM (inactive)	> 100 µM (inactive)	> 100 µM (inactive)	> 100 µM (inactive)	> 100 µM (inactive)	> 100 µM (inactive)	> 100 µM (inactive)	> 100 µM (inactive)	> 100 µM (inactive)	> 100 µM (inactive)	> 100 µM (inactive)	> 100 µM (inactive)	> 100 µM (inactive)
CN(C)c1ccc(C=c2c3ccccc3n3c2c2c([n+]3C)CCCC2)cc1	0.351 µM (active)	0.128 µM (active)	0.161 µM (active)	0.269 µM (active)	0.0728 µM (active)	0.0491 µM (active)	0.447 µM (active)	0.0465 µM (active)	0.0796 µM (active)	0.463 µM (active)	0.0227 µM (active)	0.245 µM (active)	0.908 µM (active)	0.116 µM (active)	0.118 µM (active)	0.0223 µM (active)	0.173 µM (active)	0.208 µM (active)	3.17 µM (inactive)
CCOc1cnc(C(O)(c2ccccc2)c2ccccc2)o1	> 100 µM (inactive)	> 100 µM (inactive)	> 100 µM (inactive)	> 100 µM (inactive)	> 100 µM (inactive)	> 100 µM (inactive)	> 100 µM (inactive)	> 100 µM (inactive)	> 100 µM (inactive)	> 100 µM (inactive)	> 100 µM (inactive)	> 100 µM (inactive)	> 100 µM (inactive)	> 100 µM (inactive)	> 100 µM (inactive)	> 100 µM (inactive)	> 100 µM (inactive)	> 100 µM (inactive)	> 100 µM (inactive)
COc1ccc(-c2c(N)n(-c3cccc(C(=O)O)c3)c(=O)c3cc([N+](=O)[O-])ccc23)cc1	> 100 µM (inactive)	> 100 µM (inactive)	> 100 µM (inactive)	> 100 µM (inactive)	> 100 µM (inactive)	> 100 µM (inactive)	> 100 µM (inactive)	> 100 µM (inactive)	> 100 µM (inactive)	> 100 µM (inactive)	> 100 µM (inactive)	> 100 µM (inactive)	> 100 µM (inactive)	> 100 µM (inactive)	> 100 µM (inactive)	> 100 µM (inactive)	> 100 µM (inactive)	> 100 µM (inactive)	> 100 µM (inactive)
Cn1c(N)c(/C=C/C(=O)Oc2ccccc2)c(=O)n(C)c1=O	36 µM (inactive)	30.6 µM (inactive)	> 100 µM (inactive)	> 100 µM (inactive)	> 100 µM (inactive)	47.9 µM (inactive)	47.4 µM (inactive)	> 100 µM (inactive)	24.2 µM (inactive)	> 100 µM (inactive)	> 100 µM (inactive)	99.8 µM (inactive)	29 µM (inactive)	> 100 µM (inactive)	> 100 µM (inactive)	52.8 µM (inactive)	> 100 µM (inactive)	> 100 µM (inactive)	75.3 µM (inactive)
C/C1=C\CC[C@@]2(C)O[C@@H]2C[C@@H](C2(C)CO2)CC/C(C)=C/CC1 (stereo partly specified)	19.5 µM (inactive)	19.1 µM (inactive)	23.7 µM (inactive)	19.4 µM (inactive)	16.1 µM (inactive)	21.7 µM (inactive)	15.2 µM (inactive)	19.8 µM (inactive)	26.2 µM (inactive)	22.3 µM (inactive)	13.8 µM (inactive)	24.8 µM (inactive)	19.6 µM (inactive)	47.2 µM (inactive)	32.8 µM (inactive)	15.4 µM (inactive)	27.9 µM (inactive)	22.8 µM (inactive)	20.4 µM (inactive)
CC(=O)OCC(=O)O[C@@H]1[C@H]2[C@@H](OC(=O)c3ccccc3)[C@@H](C)C[C@]2(O)[C@H](OC(C)=O)[C@@]2(C)C(OC(C)=O)[C@]1(OC(C)=O)C[C@H]1C(=O)C(C)(C)C[C@@H]12 (stereo partly specified)	> 26.9 µM (inactive)	> 50 µM (inactive)	> 50 µM (inactive)	> 50 µM (inactive)	9.98 µM (inactive)	> 50 µM (inactive)	> 50 µM (inactive)	> 11.2 µM (inactive)	> 50 µM (inactive)	> 50 µM (inactive)	> 42 µM (inactive)	> 50 µM (inactive)	37.6 µM (inactive)	> 19.6 µM (inactive)	> 50 µM (inactive)	> 50 µM (inactive)	> 50 µM (inactive)	> 50 µM (inactive)	> 50 µM (inactive)
O=C(c1ccc(Cl)cc1Cl)N(Cc1cccnc1)C(=S)N(Cc1cccnc1)C(=O)c1ccc(Cl)cc1Cl	21 µM (inactive)	3.35 µM (inactive)	2.94 µM (inactive)	12.2 µM (inactive)	19 µM (inactive)	2.58 µM (inactive)	16.7 µM (inactive)	1.86 µM (inactive)	4.07 µM (inactive)	10.7 µM (inactive)	15.7 µM (inactive)	3.39 µM (inactive)	11.6 µM (inactive)	4.06 µM (inactive)	3.68 µM (inactive)	3.15 µM (inactive)	3.58 µM (inactive)	3.01 µM (inactive)	15.5 µM (inactive)
COC(=O)c1cc2/c(=N/O)c3ccccc3sc2o1	55.5 µM (inactive)	> 100 µM (inactive)	> 100 µM (inactive)	> 100 µM (inactive)	> 100 µM (inactive)	> 100 µM (inactive)	> 100 µM (inactive)	> 100 µM (inactive)	> 100 µM (inactive)	> 100 µM (inactive)	> 100 µM (inactive)	> 100 µM (inactive)	> 100 µM (inactive)	> 100 µM (inactive)	> 100 µM (inactive)	> 100 µM (inactive)	> 100 µM (inactive)	> 100 µM (inactive)	> 100 µM (inactive)
O=C(O[C@H]1[C@@H](O)[C@H](n2cnc3c(Cl)ncnc32)O[C@@H]1COC(c1ccccc1)(c1ccccc1)c1ccccc1)c1ccccc1	2.9 µM (inactive)	25.4 µM (inactive)	5.09 µM (inactive)	20.4 µM (inactive)	56.1 µM (inactive)	4.91 µM (inactive)	13 µM (inactive)	3.55 µM (inactive)	45.4 µM (inactive)	> 100 µM (inactive)	14.8 µM (inactive)	1.91 µM (inactive)	2.62 µM (inactive)	3.04 µM (inactive)	54.5 µM (inactive)	22.8 µM (inactive)	21.2 µM (inactive)	26.3 µM (inactive)	34.8 µM (inactive)
O=C1NCC2(CCNCC2)N1c1ccccc1	> 100 µM (inactive)	> 100 µM (inactive)	> 100 µM (inactive)	> 100 µM (inactive)	> 100 µM (inactive)	> 100 µM (inactive)	> 100 µM (inactive)	> 100 µM (inactive)	> 100 µM (inactive)	> 100 µM (inactive)	> 100 µM (inactive)	> 100 µM (inactive)	> 100 µM (inactive)	> 100 µM (inactive)	> 100 µM (inactive)	> 100 µM (inactive)	> 100 µM (inactive)	> 100 µM (inactive)	> 100 µM (inactive)
O=C(O)c1c(CC(Cc2ccccc2)C(=O)O)ccc2c1CCC2 (stereo unspecified)	> 100 µM (inactive)	> 100 µM (inactive)	> 100 µM (inactive)	> 100 µM (inactive)	> 100 µM (inactive)	> 100 µM (inactive)	> 100 µM (inactive)	> 100 µM (inactive)	> 100 µM (inactive)	> 100 µM (inactive)	> 100 µM (inactive)	> 100 µM (inactive)	> 100 µM (inactive)	> 100 µM (inactive)	> 100 µM (inactive)	> 100 µM (inactive)	> 100 µM (inactive)	> 10 µM (inactive)	> 100 µM (inactive)
